Test results: patent publication US9206159B2, “Piperazine-piperidine compounds as hepatitis C virus inhibitors” (Theravance Biopharma R&D IP, LLC, priority 2012, dated 2015)

Experiments:
[1] = system: HCV genotype 1b replicon cell line; experiment: HCV Genotype 1b Replicon Assay; assay type: cell-based, hepatitis C virus; details: Renilla luciferase readout, 48 hours; for EC50: Hepatitis C virus, Huh-7, Huh7 cell background, read-out: Genotype 1b (pEC50 class) (converted); for Genotype 1b (pEC50 class): Huh7 cell background
Description: Assay 1: HCV Genotype 1b Replicon Assay
The HCV genotype 1b replicon cell line was obtained from Apath LLC (Brooklyn, N.Y.) (APC144; Huh7 cell background). This subgenomic replicon contains the N-terminus of the HCV core protein fused to the neomycin-resistance selectable marker. The EMCV IRES lies downstream and drives expression of humanized Renilla luciferase fused to the non-structural proteins NS3-NS5B. This cell line was used to determine compound potency using the luciferase activity readout as a measurement of compound inhibition of replicon levels.
Cells were grown at 37° C. in a 5% CO2 humidified incubator in DMEM (Invitrogen) with 10% FBS (HyClone), 1×NEAA (Invitrogen), 1× Pen-Strep (Invitrogen), and 500 μg/mL G418 (Invitrogen). On day 1 of the assay, cells were plated at 10,000 cells/well in white 96-well tissue culture plates (Costar) in 200 μL media lacking G418. Four hours later, once the cells have adhered, the media was removed and replaced with media (no G418) containing dose-responses of test compounds. Compounds were initially diluted in DMSO and then diluted another 200× in media to bring the final DMSO concentration down to 0.5%. The cells were incubated with test compounds for 48 hours. At the end of the incubation period, media and compound were removed from the plates and the luciferase activity was determined using Promega Renilla-Glo reagents.
To analyze the data, the luciferase activity was plotted vs. the compound concentration, and EC50 values were determined from a 4-parameter robust fit model with the GraphPad Prism software package (GraphPad Software, Inc., San Diego, Calif.). Results are expressed as the negative decadic logarithm of the EC50 value, pEC50.
Test compounds having a higher pEC50 value in this assay show greater inhibition of HCV genotype 1b replication.

[2] = system: HCV genotype 1a replicon cell line; experiment: HCV Genotype 1a Replicon Assay; assay type: cell-based, hepatitis C virus; details: Huh7.5 cell background, NS3-specific protease activity in lysates, 48 or 72 hours; for EC50: Hepatitis C virus, read-out: Genotype 1a (pEC50 class) (converted)
In short: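 Huh7.5-based subgenomic genotype 1a replicon cells, plated without G418, exposed to compound dose-responses (0.5% DMSO final) for 48 or 72 h at 37 °C. Lysate NS3/4a protease activity read with 15 μM FRET substrate, 20 min at 37 °C (Ex 340/Em 509 nm); EC50 from 4-parameter fit.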

Structure (SMILES)	EC50 [1] [nM]	EC50 [2] [nM]	Genotype 1b (pEC50 class) [1]	Genotype 1a (pEC50 class) [2]
COC(=O)N[C@H](C(=O)N1C[C@@H](C)C[C@H]1c1nc(-c2ccc(-c3cc(Cl)c(NC(=O)N4CCC(N5CCN(C(=O)[C@H]6CC6(C)C)C[C@@H]5C)CC4)cc3OC(F)(F)F)cc2)c[nH]1)C(C)C [Example 11, ((S)-1-{(2S,4S)-2-[4-(5′-Chloro-4′-{[4-((S)-4-dimethylcyclopropane-carbonyl-2-methyl-piperazin-1-yl)-piperidine-1-carbonyl]-amino}-2′-trifluoromethoxy-biphenyl-4-yl)-1H-imidazol-2-yl]-4-methyl-pyrrolidine-1-carbonyl}-2-methyl-propyl)-carbamic acid methyl ester]	< 0.1	< 0.1	–	–
COC(=O)N[C@H](C(=O)N1C[C@@H](C)C[C@H]1c1nc(-c2ccc(-c3ccc(NC(=O)N4CCN(C5CCN(C(=O)C(C)(C)C)CC5)CC4)cc3OC(F)(F)F)cc2)c(Cl)[nH]1)C(C)C [Example 7, [(S)-1-((2S,4S)-2-{5-Chloro-4-[4′-({4-[1-(2,2-dimethyl-propionyl)-piperidin-4-yl]-piperazine-1-carbonyl}-amino)-2′-trifluoromethoxy-biphenyl-4-yl]-1H-imidazol-2-yl}-4-methyl-pyrrolidine-1-carbonyl)-2-methyl-propyl]-carbamic acid methyl ester]	< 0.1	< 0.1	–	–
COC(=O)N[C@H](C(=O)N1C[C@@H](C)C[C@H]1c1nc(-c2ccc(-c3ccc(NC(=O)N4CCN(C5CCN(C(=O)C6CCC6)CC5)CC4)cc3OC(F)(F)F)cc2)c[nH]1)C(C)C [Example 2-19]	–	–	D (D represents pEC50>10 (EC50<0.1 nM))	C (C represents pEC50 between and 9 and about 10, (EC50 between 1 nM and 0.1 nM))
COC(=O)N[C@H](C(=O)N1CCC[C@H]1c1nc(-c2ccc(-c3ccc(NC(=O)N4CCN(C5CCN(C(=O)OC(C)(C)C)CC5)CC4)cc3)cc2)c[nH]1)C(C)C [Example 1-1]	–	–	D (D represents pEC50>10 (EC50<0.1 nM))	C (C represents pEC50 between and 9 and about 10, (EC50 between 1 nM and 0.1 nM))
COC(=O)N[C@H](C(=O)N1C[C@@H](C)C[C@H]1c1nc(-c2ccc(-c3ccc(NC(=O)N4CCN(C5CCN(C(=O)[C@H]6CC6(C)C)CC5)CC4)cc3OC(F)(F)F)cc2)c(Cl)[nH]1)C(C)C [Example 2-17]	–	–	D (D represents pEC50>10 (EC50<0.1 nM))	D (D represents pEC50>10 (EC50<0.1 nM))
COC(=O)N[C@H](C(=O)N1CCC[C@H]1c1nc(-c2ccc(-c3ccc(NC(=O)N4CCN(C5CCN(C(=O)OC(C)(C)C)CC5)CC4)cc3OC(F)(F)F)cc2)c[nH]1)C(C)C [Example 1-14]	–	–	D (D represents pEC50>10 (EC50<0.1 nM))	C (C represents pEC50 between and 9 and about 10, (EC50 between 1 nM and 0.1 nM))
[2H]C([2H])([2H])C1(C([2H])([2H])[2H])CC1C(=O)N1CCC(N2CCN(C(=O)Nc3ccc(-c4ccc(-c5c[nH]c([C@@H]6C[C@H](C)CN6C(=O)[C@@H](NC(=O)OC)C(C)C)n5)cc4)c(OC(F)(F)F)c3)CC2)CC1 (stereo partly shown) [Example 2-20]	–	–	D (D represents pEC50>10 (EC50<0.1 nM))	D (D represents pEC50>10 (EC50<0.1 nM))
COC(=O)N[C@H](C(=O)N1C[C@@H](C)C[C@H]1c1nc2c(ccc3cc(-c4ccc(NC(=O)N5CCN(C6CCN(C(=O)[C@H]7CC7(C)C)CC6)CC5)cc4OC(F)(F)F)ccc32)[nH]1)C(C)C [Example 6-1]	–	–	D (D represents pEC50>10 (EC50<0.1 nM))	D (D represents pEC50>10 (EC50<0.1 nM))
COC(=O)N[C@H](C(=O)N1C[C@@H](C)C[C@H]1c1nc(-c2ccc(-c3ccc(NC(=O)N4CCC(N5CCN(C(=O)C(C)(C)CO)CC5)CC4)cc3OC(F)(F)F)cc2)c(F)[nH]1)C1CCOCC1 [Example 9-3]	< 0.1	0.1 to 1	–	–
COC(=O)N[C@H](C(=O)N1CCC[C@H]1c1nc(-c2ccc(-c3ccc(NC(=O)N4CCN(C5CCN(C(=O)C6CC6)CC5)CC4)cc3OC(F)(F)F)cc2)c[nH]1)C(C)C [Example 1-13]	–	–	D (D represents pEC50>10 (EC50<0.1 nM))	C (C represents pEC50 between and 9 and about 10, (EC50 between 1 nM and 0.1 nM))
COC(=O)N[C@H](C(=O)N1C[C@@H](C)C[C@H]1c1nc(-c2ccc(-c3cc(F)c(NC(=O)N4CCN(C5CCN(C(=O)C(C)(C)C)CC5)CC4)cc3OC(F)(F)F)cc2)c[nH]1)C(C)C [Example 2-5]	–	–	D (D represents pEC50>10 (EC50<0.1 nM))	D (D represents pEC50>10 (EC50<0.1 nM))
COC(=O)N[C@H](C(=O)N1C[C@@H](C)C[C@H]1c1nc2c(ccc3cc(-c4ccc(NC(=O)N5CCN(C6CCN(C(=O)C(C)(C)CO)CC6)CC5)cc4OC(F)(F)F)ccc32)[nH]1)C(C)C [Example 6-4]	< 0.1	< 0.1	–	–
COC(=O)N[C@H](C(=O)N1C[C@@H](C)C[C@H]1c1nc(-c2ccc(-c3ccc(NC(=O)N4CCN(C5CCN(C(=O)OC(C)(C)C)CC5)CC4)cc3OC(F)(F)F)cc2)c[nH]1)C(C)C [Example 2-21]	–	–	D (D represents pEC50>10 (EC50<0.1 nM))	D (D represents pEC50>10 (EC50<0.1 nM))
COC(=O)N[C@H](C(=O)N1C[C@@H](C)C[C@H]1c1nc(-c2ccc(-c3ccc(NC(=O)N4CCC(N5CCN(C(=O)C(C)(C)C)CC5)CC4)cc3OC(F)(F)F)cc2)c(F)[nH]1)C1CCOCC1 [Example 9-2]	< 0.1	< 0.1	–	–
COC(=O)N[C@H](C(=O)N1C[C@@H](C)C[C@H]1c1nc(-c2ccc(-c3ccc(NC(=O)N4CCN(C5CCN(C(=O)C(C)(C)C)CC5)CC4)cc3OC(F)(F)F)cc2)c[nH]1)C(C)C [Example 2-9]	–	–	D (D represents pEC50>10 (EC50<0.1 nM))	D (D represents pEC50>10 (EC50<0.1 nM))
COC(=O)N[C@H](C(=O)N1C[C@@H](C)C[C@H]1c1nc2c(ccc3cc(-c4ccc(NC(=O)N5CCN(C6CCN(C(=O)C7CC7)CC6)CC5)cc4OC(F)(F)F)ccc32)[nH]1)C(C)C [Example 16, ((S)-1-{(2S,4S)-2-[7-(4-{[4-(1-Cyclopropanecarbonyl-piperidin-4-yl)-piperazine-1-carbonyl]-amino}-2-trifluoromethoxy-phenyl)-3H-naphth[1,2-d]imidazol-2-yl]-4-methyl-pyrrolidine-1-carbonyl}-2-methyl-propyl)-carbamic acid methyl ester]	< 0.1	< 0.1	–	–
COC(=O)N[C@H](C(=O)N1CCC[C@H]1c1nc(-c2ccc(-c3ccc(NC(=O)N4CCN(C5CCN(C(=O)C6CC6)CC5)CC4)cc3)cc2)c[nH]1)C(C)C [Example 1-8]	–	–	D (D represents pEC50>10 (EC50<0.1 nM))	C (C represents pEC50 between and 9 and about 10, (EC50 between 1 nM and 0.1 nM))
COC(=O)N[C@H](C(=O)N1C[C@@H](C)C[C@H]1c1nc(-c2ccc(-c3ccc(NC(=O)N4CCC(N5CCN(C(=O)C(C)(C)C)CC5)CC4)cc3OC(F)(F)F)cc2)c[nH]1)C1CCOCC1 [Example 17, [(S)-2-((2S,4S)-2-{4-[4′-({4-[4-(2,2-Dimethyl-propionyl)-piperazin-1-yl]-piperidine-1-carbonyl}-amino)-2′-trifluoromethoxy-biphenyl-4-yl]-1H-imidazol-2-yl}-4-methyl-pyrrolidin-1-yl)-2-oxo-1-(tetrahydro-pyran-4-yl)-ethyl]-carbamic acid methyl ester]	< 0.1	0.1 to 1	–	–
COC(=O)N[C@H](C(=O)N1CCC[C@H]1c1nc(-c2ccc(-c3ccc(NC(=O)N4CCN(C5CCN(C(=O)[C@H]6CC6(C)C)CC5)CC4)cc3OC(F)(F)F)cc2)c[nH]1)C(C)C [Example 1-12]	–	–	D (D represents pEC50>10 (EC50<0.1 nM))	C (C represents pEC50 between and 9 and about 10, (EC50 between 1 nM and 0.1 nM))
COC(=O)N[C@H](C(=O)N1C[C@@H](C)C[C@H]1c1nc(-c2ccc(-c3ccc(NC(=O)N4CCC(N5CCN(C(=O)C(C)(C)CO)CC5)CC4)cc3OC(F)(F)F)cc2)c[nH]1)C1CCOCC1 [Example 9-1]	–	–	D (D represents pEC50>10 (EC50<0.1 nM))	C (C represents pEC50 between and 9 and about 10, (EC50 between 1 nM and 0.1 nM))
